From patent US7714146B2, “Azulene-oxindole compounds as multiple-kinase inhibitors and useful as anticancer agents” (Industrial Technology Research Institute, priority 2006, dated 2010) come the findings set out here.

Broadly, the inhibition is the drop in the measured response relative to a control, in per cent. Usually IC50 stands for the point on the concentration scale where inhibition reaches its midpoint.

Assay type in all cases: biochemical
Experiment [1] addresses T1, human c-KIT (Thr544-Val976) (Homo sapiens, UniProt P10721).
T1 construct: human c-KIT (Thr544-Val976); GST (N); purchased Cell Signaling Technology; host or cells: baculovirus expression system
Nature of the experiment: c-KIT kinase assay (HTScan kit, DELFIA). Particulars: for inhibition at 0.1 µM: compound at 0.1 μM, read-out: c-KIT 0.1 μM, % of inhibition relative to control; for inhibition at 1 µM: compound at 1 μM, read-out: c-KIT 1 μM, % of inhibition relative to control; for IC50: read-out: c-KIT kinase inhibition (IC50). The method, then:
(§1) Compounds 1-100 were treated for their efficacy in inhibiting activities of FLT-3, c-KIT, KDR/Flk-1, PDGFR-beta, EGFR, and PKC kinases by biochemical DELFIA (Dissociation Enhanced Lanthanide FIA) assays according to the procedure described below. The assays were conducted by, Division of Cell Engineering, Biomedical Engineering Research Laboratories, Industrial Technology Research Institute, Bldg. 53, 195, sec. 4, Chung Hsing Rd. Chutung, Hsinchu, Taiwan 310, R.O.C.
(§2) The c-KIT assay was conducted following the protocol described in Protocol for HTScan® c-KIT Kinase Assay Kit (Cell Signaling Technology®). The assay was conducted under the following conditions: c-KIT source: The GST-c-KIT fusion protein was produced using a baculovirus expression system with a construct expressing human c-KIT (Thr544-Val976) with an amino-terminal GST tag, substrate: 1.5 μM This biotinylated peptide contains the residues surrounding Tyr-996 of KDR, vehicle: 1% DMSO, pre-incubation time/temperature: 5 minutes at room temperature, incubation time/temperature: 30 minutes at room temperature, incubation buffer: 60 mM HEPES pH 7.5, 5 mM MgCl2, 5 mM MnCl2, 3 μM Na3VO4, 1.25 mM DTT, 20 μM ATP, and quantitative method: DELFIA® Assay.

For experiment [2], the target named is T2, human VEGFR-2 (Val789-Val1356) (Homo sapiens, UniProt P35968).
T2 construct: human VEGFR-2 (Val789-Val1356); GST (N); purchased Cell Signaling Technology; host or cells: baculovirus expression system
The experiment can be described thus: KDR kinase assay (HTScan VEGFR-2 kit, DELFIA). Particulars: for inhibition at 0.1 µM: compound at 0.1 μM, read-out: KDR 0.1 μM, % of inhibition relative to control; for inhibition at 1 µM: compound at 1 μM, read-out: KDR 1 μM, % of inhibition relative to control. On the procedure:
as §1
as §2, with “The KDR” for “The c-KIT”, “HTScan® VEGFR-2” for “HTScan® c-KIT”, “conditions: KDR” for “conditions: c-KIT”, “The GST-Kinase” for “The GST-c-KIT”, “human VEGFR-2 (Val789-Val1356) (GenBank Accession No. NM_002253)” for “human c-KIT (Thr544-Val976)”, “μM Gastrin Precursor Biotinylated Peptide (with Tyr87 as phosphorylation site),” for “μM This biotinylated peptide contains the residues surrounding Tyr-996 of KDR,”

For experiment [3], the target named is T3, human FLT-3 (Arg571-Ser993) (Homo sapiens, UniProt P36888).
T3 construct: human FLT-3 (Arg571-Ser993); GST (N); purchased Cell Signaling Technology; host or cells: baculovirus expression system
T3 sequence (P36888 571-993): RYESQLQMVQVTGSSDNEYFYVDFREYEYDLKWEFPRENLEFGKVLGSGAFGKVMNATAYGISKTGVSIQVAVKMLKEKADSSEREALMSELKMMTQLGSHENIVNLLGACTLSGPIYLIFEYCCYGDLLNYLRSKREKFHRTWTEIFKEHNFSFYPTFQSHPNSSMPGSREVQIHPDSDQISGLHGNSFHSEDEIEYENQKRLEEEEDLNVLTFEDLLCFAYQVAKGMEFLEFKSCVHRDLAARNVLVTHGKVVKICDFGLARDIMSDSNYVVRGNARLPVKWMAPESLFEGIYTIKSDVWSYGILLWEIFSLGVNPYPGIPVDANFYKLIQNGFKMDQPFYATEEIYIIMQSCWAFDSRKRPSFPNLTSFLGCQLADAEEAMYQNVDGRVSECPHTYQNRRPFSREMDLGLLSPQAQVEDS
Nature of the experiment: FLT-3 kinase assay (HTScan kit, DELFIA). The following applies: for inhibition at 0.1 µM: compound at 0.1 μM, read-out: FLT-3 0.1 μM, % of inhibition relative to control; for inhibition at 1 µM: compound at 1 μM, read-out: FLT-3 1 μM, % of inhibition relative to control; for IC50: read-out: FLT-3 kinase inhibition (IC50). The method, then:
as §1
as §2, with “FLT-3” for “c-KIT”, “GST-kinase” for “GST-c-KIT”, “FLT-3 (Arg571-Ser993) (GenBank accession No. NM_004119)” for “c-KIT (Thr544-Val976)”, “Gastrin Precursor Biotinylated Peptide (with Tyr87 as phosphorylation site),” for “This biotinylated peptide contains the residues surrounding Tyr-996 of KDR,”

T1 sequence (P10721 544-976): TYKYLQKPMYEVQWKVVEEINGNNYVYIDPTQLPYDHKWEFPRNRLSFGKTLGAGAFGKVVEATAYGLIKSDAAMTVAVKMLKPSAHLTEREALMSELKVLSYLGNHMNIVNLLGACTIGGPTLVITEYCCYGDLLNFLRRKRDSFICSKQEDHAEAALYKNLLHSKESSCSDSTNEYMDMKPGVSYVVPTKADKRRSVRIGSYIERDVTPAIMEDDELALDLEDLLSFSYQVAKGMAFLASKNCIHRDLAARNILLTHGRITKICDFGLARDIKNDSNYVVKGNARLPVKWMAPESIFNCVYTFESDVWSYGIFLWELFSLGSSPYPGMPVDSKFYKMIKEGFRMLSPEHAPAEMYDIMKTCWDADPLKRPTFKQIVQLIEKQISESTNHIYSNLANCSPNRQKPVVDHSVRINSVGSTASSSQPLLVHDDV
T2 sequence (P35968 789-1356): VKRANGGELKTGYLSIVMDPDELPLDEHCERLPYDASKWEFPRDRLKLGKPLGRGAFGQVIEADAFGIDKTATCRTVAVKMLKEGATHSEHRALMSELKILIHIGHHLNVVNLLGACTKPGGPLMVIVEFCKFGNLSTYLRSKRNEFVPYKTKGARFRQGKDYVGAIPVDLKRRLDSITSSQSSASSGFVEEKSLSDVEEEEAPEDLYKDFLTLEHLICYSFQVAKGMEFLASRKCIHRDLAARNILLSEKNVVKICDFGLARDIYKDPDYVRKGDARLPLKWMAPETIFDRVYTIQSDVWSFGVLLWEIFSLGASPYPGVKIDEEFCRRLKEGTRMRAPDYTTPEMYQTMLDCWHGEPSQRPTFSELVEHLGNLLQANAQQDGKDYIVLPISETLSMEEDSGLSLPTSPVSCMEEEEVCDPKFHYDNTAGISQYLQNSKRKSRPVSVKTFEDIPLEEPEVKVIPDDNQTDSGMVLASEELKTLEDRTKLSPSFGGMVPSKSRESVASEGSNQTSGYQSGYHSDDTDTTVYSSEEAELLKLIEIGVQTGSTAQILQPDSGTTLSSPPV

For the compound `Cc1ccc2c(c1)/C(=C\c1c3cccccc-3nc1N)C(=O)N2` [Compound 54, 3-(2-Amino-cyclohepta[b]pyrrol-3-ylmethylene)-5-methyl-1,3-dihydro-indol-2-one], the inhibition at 0.1 µM in experiment [1] is 27.5%; in experiment [2] it was 17%; in experiment [3], 33.3%. The inhibition at 1 µM in experiment [1] was 27.5%; in experiment [2], 25.7%; in experiment [3], 52.5%.

Turning to `CC(C)c1cc(C=C2C(=O)Nc3ccc(F)cc32)c2cccccc1-2` [Compound 81, 5-Fluoro-3-(3-isopropyl-azulen-1-ylmethylene)-1,3-dihydro-indol-2-one], the inhibition at 0.1 µM in experiment [1] came to 48.7%; in experiment [2] it was 33%; in experiment [3] it was 19.1%. Moreover, the inhibition at 1 µM was determined as 48.7% in experiment [1], 36.6% in experiment [2] and 43.5% in experiment [3].

Consider `O=C1Nc2ccc(F)cc2/C1=C\c1cc2cccccc-2c1F` [Compound 56, 5-Fluoro-3-(1-fluoro-azulen-2-ylmethylene)-1,3-dihydro-indol-2-one], for which the results for the inhibition at 0.1 µM in experiment [1], in experiment [2] and in experiment [3] were 34.8%, 35.4% and 12.6%, respectively. In addition, the inhibition at 1 µM was 34.8% in experiment [1], 34.2% in experiment [2] and 53% in experiment [3].

In the case of `Cc1cc(C=C2C(=O)Nc3ccc(F)cc32)c2ccccc(OCCCN3CCOCC3)c1-2` (mixture of isomers) [Compound 87, 5-Fluoro-3-[3-methyl-4-(3-morpholin-4-yl-propoxy)-azulen-1-ylmethylene]-1,3-dihydro-indol-2-one], the inhibition at 0.1 µM in experiment [1] was 71%; in experiment [2] it was 1.9%; in experiment [3], 56.9%. The figures for the inhibition at 1 µM in experiment [1], in experiment [2] and in experiment [3] were 71%, 11.5% and 85.7%, respectively. For the same compound, the IC50 in experiment [1] is 17.8 nM; in experiment [3], 4.8 nM.

Turning to `Cc1cc(C=C2C(=O)Nc3ccccc32)c2ccccc(OCCCN(C)C)c1-2` [Compound 98, 3-[4-(3-Dimethylamino-propoxy)-3-methyl-azulen-1-ylmethylene]-1,3-dihydro-indol-2-one], the figures for the inhibition at 0.1 µM in experiment [1], in experiment [2] and in experiment [3] were 60.4%, 38.6% and 46.1%, respectively. The inhibition at 1 µM in experiment [1] was 60.4%; in experiment [2], 80.3%; in experiment [3] it was 85.4%.

`Cc1cc(C=C2C(=O)Nc3cc(F)ccc32)c2ccccc(OCCCN(C)C)c1-2` [Compound 91, 3-[4-(3-Dimethylamino-propoxy)-3-methyl-azulen-1-ylmethylene]-6-fluoro-1,3-dihydro-indol-2-one]: the results for the inhibition at 0.1 µM in experiment [1], in experiment [2] and in experiment [3] were 56.5%, 1.1% and 15.2%, respectively. Besides, the values for the inhibition at 1 µM in experiment [1], in experiment [2] and in experiment [3] were 56.5%, 9.4% and 52.4%, respectively.

For `CCN(CC)CCCOc1ccccc2c(C=C3C(=O)Nc4ccc(F)cc43)cc(C)c1-2` [Compound 90, 3-[4-(3-Diethylamino-propoxy)-3-methyl-azulen-1-ylmethylene]-5-fluoro-1,3-dihydro-indol-2-one], the results for the inhibition at 0.1 µM in experiment [1] and in experiment [3] were 83.2% and 33.9%, respectively. For the same compound, the inhibition at 1 µM in experiment [1] is 83.2%; in experiment [2] it was 32.8%; in experiment [3], 85.5%. The IC50 turned out to be 77.9 nM in experiment [1] and 10.1 nM in experiment [3].

As for `CCc1cc(C=C2C(=O)Nc3ccc(S(=O)(=O)NCCCN4CCN(C)CC4)cc32)c2cccccc1-2` [Compound 83, 3-(3-Ethyl-azulen-1-ylmethylene)-2-oxo-2,3-dihydro-1H-indole-5-sulfonic acid [3-(4-methyl-piperazin-1-yl)-propyl]-amide], the inhibition at 0.1 µM amounted to 19.6% in experiment [1], 20.8% in experiment [2] and 10.5% in experiment [3]. Moreover, the inhibition at 1 µM in experiment [1] is 19.6%; in experiment [2] it was 26.7%; in experiment [3] it was 17.7%.

Turning to `CCOC(=O)N1CCC(Nc2ccc3c(c2)NC(=O)/C3=C/c2cc(C)c3c(OCCCN(C)C)ccccc2-3)CC1` [Compound 97, 4-{3-[4-(3-Dimethylamino-propoxy)-3-methyl-azulen-1-ylmethylene]-2-oxo-2,3-dihydro-1H-indol-6-ylamino}-piperidine-1-carboxylic acid ethyl ester], the inhibition at 0.1 µM is 30.6% in experiment [1], 30.5% in experiment [2] and 19.1% in experiment [3]. Moreover, the results for the inhibition at 1 µM in experiment [1], in experiment [2] and in experiment [3] were 30.6%, 41.8% and 23.9%, respectively.

As for `Cc1cc(C=C2C(=O)Nc3ccc(S(=O)(=O)NCCCN4CCN(C)CC4)cc32)c2cccccc1-2` [Compound 82, 3-(3-Methyl-azulen-1-ylmethylene)-2-oxo-2,3-dihydro-1H-indole-5-sulfonic acid [3-(4-methyl-piperazin-1-yl)-propyl]-amide], the inhibition at 0.1 µM in experiment [1] was found to be 30.7%; in experiment [2], 17.6%; in experiment [3], 12.8%. In addition, the inhibition at 1 µM was 30.7% in experiment [1], 18.5% in experiment [2] and 13.5% in experiment [3].

For the compound `CN(C)Cc1c(/C=C2/C(=O)Nc3ccc(F)cc32)cc2cccccc1-2` [Compound 59, 3-(1-Dimethylaminomethyl-azulen-2-ylmethylene)-5-fluoro-1,3-dihydro-indol-2-one], the inhibition at 0.1 µM in experiment [1] is 24.2%; in experiment [2], 19.9%; in experiment [3], 43%. The values for the inhibition at 1 µM in experiment [1], in experiment [2] and in experiment [3] were 24.2%, 28.5% and 49.8%, respectively.

Consider `Cc1cc(C=C2C(=O)Nc3ccc(F)cc32)c2ccccc(OCCCN3CCN(C)CC3)c1-2` [Compound 96, 5-Fluoro-3-{3-methyl-4-[3-(4-methyl-piperazin-1-yl)-propoxy]-azulen-1-ylmethylene}-1,3-dihydro-indol-2-one], for which the inhibition at 0.1 µM came out at 58% in experiment [1], 29.3% in experiment [2] and 68.9% in experiment [3]. The inhibition at 1 µM in experiment [1] was determined as 58%; in experiment [2], 89.8%; in experiment [3], 97.2%.
